Each cell line was assayed with CC(C)(C)c1cc(NC(=O)Nc2ccc(-c3cn4c(n3)sc3cc(OCCN5CCOCC5)ccc34)cc2)no1 [Quizartinib] + N=C(N)NC(=N)NCCc1ccccc1 [Phenformin] (partner 250 µM) (assay: relative viability (nuclei count vs DMSO), 5 days (fraction); higher = more cells survive). Conditions: first compound 0.001 µM.
In short: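 Relative viability was taken as the ratio of nuclei in treated wells to nuclei in vehicle wells. Lung cancer cell lines in 1536-well plates received compounds by pin tool one day after seeding, either one drug alone or a fixed anchor-drug dose plus five library-drug doses (not always all listed) in √10 steps. Nuclei were counted on 4× images after 5 days of treatment, and values are medians of duplicate plates.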
With LCLC-97TM1 the relative viability was 0.396. LXF-289 gave a relative viability of 0.485. LU99A showed a relative viability of 0.774. NCI-H2023 showed a relative viability of 0.347. Cell Line NCI-H2228 has a relative viability of 0.242. Cell Line NCI-H1437 has a relative viability of 0.274. In the case of NCI-H1395, the relative viability is reported as 0.437. For NCI-H2009, the relative viability was 0.464. Cell Line HCC-366 has a relative viability of 0.615. Work on NCI-H1915 yielded a relative viability of 0.345. Cell Line NCI-H2347 has a relative viability of 0.268. For LCLC-103H, the relative viability was 0.306. In the case of ABC-1, the relative viability is reported as 0.237. NCI-H1734 showed a relative viability of 0.3. HCC-78 showed a relative viability of 0.687. COR-L 105 gave a relative viability of 0.449. A549 showed a relative viability of 0.166. In the case of NCI-H596, the relative viability is reported as 0.834.

Same assay, conditions: first compound 0.003162 µM
EKVX was tested, and the relative viability was 0.24. EPLC-272H was tested, and the relative viability was 0.342. With NCI-H520 the relative viability was 0.526. NCI-H1563 gave a relative viability of 0.708. For NCI-H650, the relative viability was 0.454. For RERF-LC-KJ, the relative viability was 0.397. For HCC-827, the relative viability was 0.385. NCI-H2087 showed a relative viability of 0.429. SK-MES-1 was tested, and the relative viability was 0.636. NCI-H1651 showed a relative viability of 0.268. Cell Line UMC-11 has a relative viability of 0.255. Work on NCI-H1355 yielded a relative viability of 0.434. Work on H3255 yielded a relative viability of 0.31. Work on NCI-H1792 yielded a relative viability of 0.2. NCI-H647 gave a relative viability of 0.591. Cell Line NCI-H1623 has a relative viability of 0.645. For LCLC-97TM1, the relative viability was 0.379. Cell Line LXF-289 has a relative viability of 0.496. In the case of LU99A, the relative viability is reported as 0.78. NCI-H2023 showed a relative viability of 0.378. NCI-H2228 showed a relative viability of 0.228. In the case of NCI-H1437, the relative viability is reported as 0.277. NCI-H1395 gave a relative viability of 0.447. NCI-H2009 showed a relative viability of 0.48. HCC-366 showed a relative viability of 0.549. NCI-H1915 showed a relative viability of 0.374. Work on NCI-H2347 yielded a relative viability of 0.359. LCLC-103H was tested, and the relative viability was 0.276. For ABC-1, the relative viability was 0.322. In the case of NCI-H1734, the relative viability is reported as 0.338. HCC-78 gave a relative viability of 0.832. Work on COR-L 105 yielded a relative viability of 0.495. HCC-15 gave a relative viability of 0.461. HARA gave a relative viability of 0.453. A549 showed a relative viability of 0.155. Cell Line NCI-H596 has a relative viability of 0.681.

Same assay, conditions: first compound 0.01 µM
EKVX was tested, and the relative viability was 0.238. EPLC-272H gave a relative viability of 0.427. Cell Line NCI-H520 has a relative viability of 0.532. Cell Line NCI-H1563 has a relative viability of 0.656. NCI-H650 gave a relative viability of 0.409. With RERF-LC-KJ the relative viability was 0.424. HCC-827 showed a relative viability of 0.44. Cell Line NCI-H2087 has a relative viability of 0.458. SK-MES-1 was tested, and the relative viability was 0.677. NCI-H1651 gave a relative viability of 0.35. UMC-11 showed a relative viability of 0.307. For NCI-H1355, the relative viability was 0.437. H3255 showed a relative viability of 0.383. For NCI-H1792, the relative viability was 0.244. With NCI-H647 the relative viability was 0.569. NCI-H1623 gave a relative viability of 0.599. LCLC-97TM1 gave a relative viability of 0.421. Work on LXF-289 yielded a relative viability of 0.529. LU99A was tested, and the relative viability was 0.904. NCI-H2023 was tested, and the relative viability was 0.372. Work on NCI-H2228 yielded a relative viability of 0.52. NCI-H1437 showed a relative viability of 0.294. Cell Line NCI-H1395 has a relative viability of 0.46. In the case of NCI-H2009, the relative viability is reported as 0.504. With HCC-366 the relative viability was 0.577. Work on NCI-H1915 yielded a relative viability of 0.408. NCI-H2347 was tested, and the relative viability was 0.461. LCLC-103H showed a relative viability of 0.341. For ABC-1, the relative viability was 0.227. NCI-H1734 showed a relative viability of 0.48. Work on HCC-78 yielded a relative viability of 0.707. COR-L 105 was tested, and the relative viability was 0.471. HCC-15 showed a relative viability of 0.396. Cell Line HARA has a relative viability of 0.489. A549 showed a relative viability of 0.201. Work on NCI-H596 yielded a relative viability of 0.712.

Same assay, conditions: first compound 0.03162 µM
EKVX showed a relative viability of 0.244. With EPLC-272H the relative viability was 0.3. NCI-H520 was tested, and the relative viability was 0.357. Cell Line NCI-H1563 has a relative viability of 0.514. Cell Line NCI-H650 has a relative viability of 0.399. RERF-LC-KJ showed a relative viability of 0.359. HCC-827 was tested, and the relative viability was 0.402. NCI-H2087 gave a relative viability of 0.369. NCI-H1651 was tested, and the relative viability was 0.231. With UMC-11 the relative viability was 0.268. Cell Line NCI-H1355 has a relative viability of 0.426. Work on H3255 yielded a relative viability of 0.346. Work on NCI-H1792 yielded a relative viability of 0.346. In the case of NCI-H647, the relative viability is reported as 0.453. NCI-H1623 gave a relative viability of 0.595. LCLC-97TM1 was tested, and the relative viability was 0.464. Cell Line LXF-289 has a relative viability of 0.497. LU99A showed a relative viability of 0.533. NCI-H2228 gave a relative viability of 0.345. For NCI-H1437, the relative viability was 0.208. NCI-H1395 was tested, and the relative viability was 0.468. NCI-H2009 was tested, and the relative viability was 0.44. HCC-366 gave a relative viability of 0.601. For NCI-H1915, the relative viability was 0.353. Work on NCI-H2347 yielded a relative viability of 0.395. With LCLC-103H the relative viability was 0.337. Work on ABC-1 yielded a relative viability of 0.261. Cell Line NCI-H1734 has a relative viability of 0.391. For HCC-78, the relative viability was 0.574. COR-L 105 gave a relative viability of 0.406. Work on HARA yielded a relative viability of 0.445. A549 was tested, and the relative viability was 0.117. For NCI-H596, the relative viability was 0.667.

Same assay, conditions: first compound 0.1 µM
EKVX was tested, and the relative viability was 0.25. EPLC-272H showed a relative viability of 0.207. With NCI-H520 the relative viability was 0.35. Cell Line NCI-H1563 has a relative viability of 0.533. Cell Line NCI-H650 has a relative viability of 0.476. In the case of RERF-LC-KJ, the relative viability is reported as 0.315. With HCC-827 the relative viability was 0.404. Cell Line NCI-H2087 has a relative viability of 0.516. Work on SK-MES-1 yielded a relative viability of 0.612. In the case of NCI-H1651, the relative viability is reported as 0.272. UMC-11 gave a relative viability of 0.212. NCI-H1355 showed a relative viability of 0.415. For H3255, the relative viability was 0.354. Cell Line NCI-H1792 has a relative viability of 0.243. NCI-H647 was tested, and the relative viability was 0.514. NCI-H1623 gave a relative viability of 0.634. LCLC-97TM1 showed a relative viability of 0.375. LXF-289 was tested, and the relative viability was 0.539. LU99A showed a relative viability of 0.248. With NCI-H2023 the relative viability was 0.312. With NCI-H2228 the relative viability was 0.26. NCI-H1437 showed a relative viability of 0.172. NCI-H1395 was tested, and the relative viability was 0.494. NCI-H2009 showed a relative viability of 0.174. HCC-366 was tested, and the relative viability was 0.547. NCI-H1915 gave a relative viability of 0.38. NCI-H2347 was tested, and the relative viability was 0.497. With LCLC-103H the relative viability was 0.361. Cell Line ABC-1 has a relative viability of 0.18. NCI-H1734 gave a relative viability of 0.387. With HCC-78 the relative viability was 0.73. COR-L 105 showed a relative viability of 0.426. For HCC-15, the relative viability was 0.436. HARA was tested, and the relative viability was 0.386. Work on A549 yielded a relative viability of 0.162. NCI-H596 gave a relative viability of 0.714.

— the supplement of paper PMC10307832
